Legend:
[1] = system: HDAC enzymes in HCT-116 cells; experiment: HDAC fluorimetric cellular activity assay; type: cell-based, human; conditions: 1 µM
Procedure: These epigenetic processes consist in downregulation of HDACs and yet other biochemical processes triggered by VPA released in cells by the reduction of the Pt(IV) prodrug. Moreover, it has also been shown[15] that non-branched MCFAs may act as HDAC inhibitors. […] HDAC activity was analyzed in HCT-116 cells and confirmed by an independent set of experiments on A2780 cells (data not shown) by using a commercial HDAC fluorimetric cellular activity kit as described in the section Materials and methods.
Figure 3 Activity of HDAC enzymes in HCT-116 cells treated with the compounds tested in the present work; their concentration was 1 µM except the concentration of free OA, which was 1 mM. […] The data represent a mean from three independent experiments, each performed in quadruplicate. The error bars are the SDs.
The activity of HDAC enzymes was analyzed in HCT-116 cells treated with compounds tested in the present work (1 µM). […] The activity of HDAC was analyzed using the HDAC fluorimetric cellular activity assay kit (Enzo Life Sciences; Farmingdale, NY) in the whole cells according to manufacturer’s instructions. […] The plates were scanned on a fluorescence reader Infinite 200 (TECAN) (360 nm excitation, 460 nm emission).

[2] = system: mitochondrial membrane potential Δψ m in HCT-116 cells; experiment: Mitochondrial membrane potential, TMRE staining and confocal microscopy; type: cell-based, human; conditions: HCT-116, 1 µM, 5 h
Procedure: The loss of Δψ m represents an early event in the apoptosis cascade that precedes the release of pro-apoptotic factors such as cytochrome c and the activation of effector caspases.
HCT-116 cells were seeded on glass bottom dishes (P50G-0-30-F, MatTek Co., Ashland, USA) at the density 3 × 10^5 cells per dish, cultured in RPMI-1640 medium (without phenol red) and incubated at 37 °C in a humidified 5% CO2 atmosphere overnight. The cells were subsequently treated with the compounds (1 μM) for 5 h. After this period, cells were washed twice with PBS and resuspended in staining medium (without Pt compound), supplemented with Hoechst 33258 and tetramethylrhodamine, ethyl ester (TMRE) from multiparametric apoptosis assay kit (Cayman Chemical, Michigan, USA) according to the manufacturer’s protocol. After 20 min of staining, the staining medium was replaced by a fresh medium (without staining dye and platinum compound).
Images of living cells were acquired with a Leica TSC SP-5X laser scanning confocal microscope (Leica Microsystems, Mannheim, Germany) using an HCX PL APO lambda blue 63.0 × 1.20 water UV objective lens corrected with an appropriate beam path (resolution 1024 × 1024, frequency 100 Hz). […] Quantification of the mean signal intensity associated with single cells was performed using software ImageJ v1.47, U.S. National Institutes of Health, Bethesda, Maryland, USA.

[3] = system: A2780 human ovarian carcinoma cells; design: method as in PMID 25888926; conditions: compared with Pt(IV)diOA value of Table 1; cited from earlier work
[4] = system: A2780cisR human ovarian carcinoma cells; design: method as in PMID 25888926; conditions: compared with Pt(IV)diOA value of Table 1; cited from earlier work
[5] = system: MCF-7 human breast cancer cells; design: method as in PMID 25888926; conditions: compared with Pt(IV)diOA value of Table 1; cited from earlier work
[6] = design: method as in PMID 25888926; conditions: valproato complexes; cited from earlier work

Compound	Efficiency to inhibit HDAC activity [1]	Reduction in the fraction of cells with an intact Δψ m relative to untreated control [2]	IC50 [3] [µM]	IC50 [4] [µM]	IC50 [5] [µM]	logP [6]
CC(=O)[O][Pt]([NH2])([NH2])([Cl])([Cl])[O]C(C)=O [Pt(IV)diAc, cis, cis, trans-[Pt(IV)(NH3)2Cl2(Ac)2]]	very small	no reduction				
CCCC(CCC)C(=O)[O][Pt]([NH2])([NH2])([Cl])([Cl])[O]C(=O)C(CCC)CCC [Pt(IV)diVPA, cis, cis, trans-[Pt(IV)(NH3)2Cl2(VPA)2]]			0.25 ± 0.09	0.3 ± 0.1	0.9 ± 0.3	0.25

From publication PMC5473904, “Epigenetic and antitumor effects of platinum(IV)-octanoato conjugates” (Scientific Reports, 2017)
